One assay concerns HCV replicon genotype 1a. Description: microbe, parasite or virus in culture. Format: cell-based. To be noted: genotype 1a replicon cells, incubated 96 hours, NS3/4A ELISA readout. (In general: In antiviral work, replicon cells carry a viral genome segment that copies itself.)
Another assay concerns HCV replicon genotype 1b. Description: microbe, parasite or virus in culture. It is filed as cell-based. To be noted: genotype 1b replicon cells, incubated 96 hours, NS3/4A ELISA readout.

Take `CNC(=O)c1c(-c2ccc(F)cc2)oc2cc(N(C)S(C)(=O)=O)c(-c3ccc4c(n3)-c3cc5c(F)cccc5n3C(C(=O)NC(C)C)O4)cc12` (centres unmarked) [Compound 111]: the IC50 in the assay with HCV replicon genotype 1a (Hepatitis C virus, 96 h) amounted to 4.5 nM; with HCV replicon genotype 1b (Hepatitis C virus, 96 h), 4.3 nM.

Consider `CN(c1cc2oc(-c3ccc(F)cc3)c(C(=O)NC3COC3)c2cc1-c1ccc2c(n1)-c1cc3c(F)cccc3n1CO2)S(C)(=O)=O` [Compound 152], for which the IC50 with HCV replicon genotype 1a (Hepatitis C virus, 96 h) was determined as 14 nM; in the assay with HCV replicon genotype 1b (Hepatitis C virus, 96 h) it was 15 nM.

As to `CNC(=O)c1c(-c2ccc(F)cc2)oc2cc(N3CCNC3=O)c(-c3ccc4c(n3)-c3cc5c(F)cccc5n3CO4)cc12` [Compound 177, 5-(11-fluoro-6H-pyrido[2′,3′:5,6][1,3]oxazino[3,4-a]indol-2-yl)-2-(4-fluorophenyl)-N-methyl-6-(2-oxoimidazohdin-1-yl)benzofuran-3-carboxamide], the IC50 stood at 4.6 nM with HCV replicon genotype 1a (Hepatitis C virus, 96 h) and 4 nM with HCV replicon genotype 1b (Hepatitis C virus, 96 h).

For the compound `CNC(=O)c1c(-c2ccc(F)cc2)oc2cc(N(C)S(C)(=O)=O)c(-c3ccc4c(n3)-c3cc5c(F)cccc5n3C(CN)O4)cc12` (centres unmarked) [Compound 115, 5-(6-(aminomethyl)-11-fluoro-6H-pyrido[2′,3′:5,6][1,3]oxazino[3,4-a]indol-2-yl)-2-(4-fluorophenyl)-N-methyl-6-(N-methylmethylsulfonamido)benzofuran-3-carboxamide], the IC50 came to 8.9 nM in the assay with HCV replicon genotype 1a and 19 nM with HCV replicon genotype 1b.

For `CNC(=O)c1c(-c2ccc(F)cc2)oc2cc(N(CC(C)O)S(C)(=O)=O)c(-c3ccc4c(n3)-c3cc5c(F)cccc5n3CO4)cc12` (centres unmarked) [Compound 202], the IC50 in the assay on HCV replicon genotype 1a (Hepatitis C virus, 96 h) stood at 2.8 nM; with HCV replicon genotype 1b (Hepatitis C virus, 96 h), 8.8 nM.

With `CNC(=O)c1c(-c2ccc(F)cc2)oc2cc(N(C)S(C)(=O)=O)c(-c3ccc4c(n3)-c3cc5c(F)cccc5n3C(CN(C)C)O4)cc12` (centres unmarked) [Compound 121, 5-(6-((dimethylamino)methyl)-11-fluoro-6H-pyrido[2′,3′:5,6][1,3]oxazino[3,4-a]indol-2-yl)-2-(4-fluorophenyl)-N-methyl-6-(N-methylmethylsulfonamido)benzofuran-3-carboxamide], the IC50 with HCV replicon genotype 1a (Hepatitis C virus, 96 h) stood at 3 nM; in the assay on HCV replicon genotype 1b (Hepatitis C virus, 96 h), 7.5 nM.

For the compound `CNC(=O)c1c(-c2ccc(F)cc2)oc2cc(N(C)S(C)(=O)=O)c(-c3ccc4c(n3)-c3cc5cc(C#N)cc(F)c5n3CO4)cc12` [Compound 31], the concentration for half-maximal inhibition (IC50) turned out to be 7.2 nM with HCV replicon genotype 1a (Hepatitis C virus, 96 h) and 6.5 nM with HCV replicon genotype 1b (Hepatitis C virus, 96 h).

In the case of `CNC(=O)c1c(-c2ccc(F)cc2)oc2cc(N(C)S(C)(=O)=O)c(-c3nc4c(cc3OC)OCn3c-4cc4c(F)cccc43)cc12` [Compound 36], the IC50 in the assay on HCV replicon genotype 1a (Hepatitis C virus, 96 h) was determined as 1.7 nM; in the assay with HCV replicon genotype 1b (Hepatitis C virus, 96 h), 7.1 nM.

As for `CNC(=O)c1c(-c2ccc(F)cc2)oc2cc(N(C)S(C)(=O)=O)c(-c3ccc4c(n3)-c3cc5c(F)cccc5n3C(C)(CO)O4)cc12` (centres unmarked) [Compound 92], the IC50 with HCV replicon genotype 1a is 4.2 nM; in the assay on HCV replicon genotype 1b it was 6.5 nM.

Turning to `Cc1n[nH]c(-c2c(-c3ccc(F)cc3)oc3cc(N(C)S(C)(=O)=O)c(-c4ccc5c(n4)-c4cc6c(F)cccc6n4CO5)cc23)n1` [Compound 161, N-(5-(11-fluoro-6H-pyrido[2′,3′:5,6][1,3]oxazino[3,4-a]indol-2-yl)-2-(4-fluorophenyl)-3-(3-methyl-1H-1,2,4-triazol-5-yl)benzofuran-6-yl)-N-methylmethanesulfonamide], the IC50 in the assay with HCV replicon genotype 1a (Hepatitis C virus, 96 h) stood at 32 nM; in the assay on HCV replicon genotype 1b (Hepatitis C virus, 96 h), 54 nM.

As for `CNC(=O)c1c(-c2ccc(F)cc2)oc2cc(N(C)S(C)(=O)=O)c(-c3ccc4c(n3)-c3cc5c(F)cccc5n3C(CNCC(=O)O)O4)cc12` (centres unmarked) [Compound 116, 2-(((11-fluoro-2-(2-(4-fluorophenyl)-3-(methylcarbamoyl)-6-(N-methylmethylsulfonamido)benzofuran-5-yl)-6H-pyrido[2′,3′:5,6][1,3]oxazino[3,4-a]indol-6-yl)methyl)amino)acetic acid], the IC50 in the assay on HCV replicon genotype 1a (Hepatitis C virus, 96 h) turned out to be 53 nM; in the assay on HCV replicon genotype 1b (Hepatitis C virus, 96 h) it was 9.4 nM.

With `CNC(=O)c1c(-c2ccc(F)cc2)oc2cc(N(C)S(C)(=O)=O)c(-c3ncc4c(n3)-c3cc5c(C#N)cccc5n3CO4)cc12` [Compound 26], the IC50 in the assay with HCV replicon genotype 1a (Hepatitis C virus, 96 h) is 1.1 nM; in the assay with HCV replicon genotype 1b (Hepatitis C virus, 96 h), 1.2 nM.

On to `CNC(=O)c1c(-c2ccc(F)cc2)oc2cc(N(C)S(C)(=O)=O)c(-c3ccc4c(n3)-c3c(Cl)c5ccccc5n3CO4)cc12` [Compound 55, 5-(12-chloro-6H-pyrido[2′,3′:5,6][1,3]oxazino[3,4-a]indol-2-yl)-2-(4-fluorophenyl)-N-methyl-6-(N-methylmethylsulfonamido)benzofuran-3-carboxamide], for which the IC50 turned out to be 57 nM in the assay on HCV replicon genotype 1a (Hepatitis C virus, 96 h) and 49 nM with HCV replicon genotype 1b (Hepatitis C virus, 96 h).

Take `CNC(=O)c1c(-c2ccc(F)cc2)oc2cc(N(C)S(C)(=O)=O)c(-c3ncc4c(n3)-c3cc5c(F)cccc5n3CCO4)cc12` [Compound 8]: the IC50 was 1.6 nM with HCV replicon genotype 1a (Hepatitis C virus, 96 h) and 2.1 nM with HCV replicon genotype 1b (Hepatitis C virus, 96 h).

`CNC(=O)c1c(-c2ccc(F)cc2)oc2cc(N(C)S(C)(=O)=O)c(-c3ccc4c(n3)-c3cc5c(C(N)=O)cccc5n3CO4)cc12` [Compound 73, 2-(2-(4-fluorophenyl)-3-(methylcarbamoyl)-6-(N-methylmethylsulfonamido)benzofuran-5-yl)-6H-pyrido[2′,3′:5,6][1,3]oxazino[3,4-a]indole-11-carboxamide]: the IC50 in the assay on HCV replicon genotype 1a (Hepatitis C virus, 96 h) is 625 nM; with HCV replicon genotype 1b (Hepatitis C virus, 96 h) it was 36 nM.

For `CCNC(=O)c1c(-c2ccc(F)cc2)oc2cc(N(C)S(C)(=O)=O)c(-c3ccc4c(n3)-c3cc5c(F)cccc5n3CO4)cc12` [Compound 156], the IC50 with HCV replicon genotype 1a (Hepatitis C virus, 96 h) is 2.3 nM; in the assay with HCV replicon genotype 1b (Hepatitis C virus, 96 h) it was 2.9 nM.

`CNC(=O)c1c(-c2ccc(F)cc2)oc2cc(N(C)S(C)(=O)=O)c(-c3ccc4c(c3)-c3[nH]c5ccccc5c3C3(CCCC3)O4)cc12` [Compound 65]: the IC50 turned out to be 11 nM with HCV replicon genotype 1a (Hepatitis C virus, 96 h) and 19 nM with HCV replicon genotype 1b (Hepatitis C virus, 96 h).

Take `CNC(=O)c1c(-c2ccc(F)cc2)oc2cc(N(C)S(C)(=O)=O)c(-c3ccc4c(c3)-c3cc5ccccc5n3CC(C)(O)CO4)cc12` (centres unmarked) [Compound 78, 2-(4-fluorophenyl)-5-(7-hydroxy-7-methyl-7,8-dihydro-6H-benzo[2,3][1,5]oxazocino[5,4-a]indol-2-yl)-N-methyl-6-(N-methylmethylsulfonamido)benzofuran-3-carboxamide]: the IC50 in the assay with HCV replicon genotype 1a (Hepatitis C virus, 96 h) turned out to be 5.7 nM; with HCV replicon genotype 1b (Hepatitis C virus, 96 h) it was 3.5 nM.

For `CNC(=O)c1c(-c2ccc(F)cc2)oc2cc(N(C)S(C)(=O)=O)c(-c3ccc4c(n3)-c3cc5c(F)cccc5n3C(COC(=O)[C@@H](NC(=O)OC)C(C)C)O4)cc12` (some centres unmarked) [Compound 103], the IC50 came to 3.3 nM in the assay with HCV replicon genotype 1a (Hepatitis C virus, 96 h) and 6.9 nM with HCV replicon genotype 1b (Hepatitis C virus, 96 h).

As for `CNC(=O)c1c(-c2ccc(F)cc2)oc2cc(N(C)S(C)(=O)=O)c(-c3cc4c(cn3)OC(CO)n3c-4cc4c(F)cccc43)cc12` (centres unmarked) [Compound 89], the IC50 was 1.1 nM in the assay with HCV replicon genotype 1a and 0.9 nM in the assay with HCV replicon genotype 1b.

As for `CNC(=O)c1c(-c2ccc(F)cc2)oc2cc(N(C)S(C)(=O)=O)c(-c3ccc4c(n3)-c3cc5ccc(F)cc5n3CO4)cc12` [Compound 17], the IC50 in the assay with HCV replicon genotype 1a (Hepatitis C virus, 96 h) was determined as 4 nM; in the assay on HCV replicon genotype 1b (Hepatitis C virus, 96 h), 3.9 nM.

Take `CNC(=O)c1c(-c2ccc(F)cc2)oc2cc(N(C)S(C)(=O)=O)c(-c3cc4c(cn3)OCn3c-4cc4cccnc43)cc12` [Compound 50]: the IC50 in the assay with HCV replicon genotype 1a (Hepatitis C virus, 96 h) is 15 nM; in the assay with HCV replicon genotype 1b (Hepatitis C virus, 96 h), 4.6 nM.

By IC50 is commonly meant the concentration that inhibits the measured activity by half. High values mean a need for much substance, low ones inhibition by little substance.

The record behind these values is US9265773B2, “Tetracyclic heterocycle compounds and methods of use thereof for the treatment of viral diseases” (priority 2011, dated 2016).
